# Laboratory results as given in patent US6288056A, “Intermittent claudication therapeutic drugs comprising pyrroloazepines” (Suntory Limited, priority 1999, dated 2001).
# Like-named read-outs stand apart in the source and are kept apart here.
# Legend:
# [1] = test system: pulmonary thromboembolic death; experiment: Inhibitory Action in Mouse Pulmonary Thromboembolic Death; assay type: in vivo, male ddY mice; settings: 3 mg/kg oral; within 10 minutes after injection of collagen 1 mg/kg and serotonin hydrochloride 5 mg/kg
# Protocol: Male ddY mice which ranged in age from 4 to 5 weeks were used after fasted overnight. Suspensions of Compounds a-c, which will be specified subsequently herein, in a 0.5% aqueous solution of carboxymethylcellulose sodium were orally administered at 3 mg/kg.
# After 1 hour, collagen [1 mg/kg, "Collagenreagent Form" (trade name), product of Moriya Sangyo Co., Ltd.] and serotonin hydrochloride (5 mg/kg, product of Sigma Chemical Co.) were injected through the candal veins.
# An investigation was made for mortality rates of mice within 10 minutes after the injection.
# [2] = test system: gastrocnemius-plantaris-sole muscle (GPS muscle); experiment: Test in Rat Intermittent Claudication Model (muscle contraction force after collagen infusion); assay type: in vivo, male Wistar rats; settings: 20 minutes after collagen infusion
# Protocol: Based on the methods proposed by Angersbach, D. et al. in Int. J. Microcirc. Clin. Exp., 7, 15-30 (1988) and by Loots, W. et al. in Am. J. Physiol. 265, H158-H164 (1993), an intermittent claudication model was designed as will be described next. Firstly, male Wistar rats which ranged in age from 9 to 10 weeks were ligated at right femoral arteries under anesthesia with pentobanbital [40 mg/kg, intraperitoneal administration, "Nembutal Injection" (trademark), product of Dainabot Co., Ltd.] and were fed for 1 week. After fasted overnight, a suspension of (-)-(S)-5-[3-[4-(4-fluorophenyl)piperazin-1-yl]propyl]-8-hydroxy-1-methyl- 1,4,5,6,7,8-hexahydropyrrolo[3,2-c]azepin-4-one (test compound a) in a 0.5% aqueous solution of carboxymethylcellulose sodium salt was orally administered at 1, 3 and 10 mg/kg, respectively.
# After an elapsed time of 60 minutes since the administration, each rat was subjected to anesthetization with urethan ([…], intraperitoneal administration, product of Sigma Chemical Co.) and α-chloralose ([…], intraperitoneal administration, product of NACALAI TESQUE, INC.). To administer collagen into artery, a cannula ["SP-31" (trade name), manufactured by Natsume Seisakusho Co., Ltd.] was inserted through the left carotid artery such that its leading end was located on a proximal side of the branching point of the iliac artery. Thereafter, the rat was held in a prone position, and the skin of the right hind leg was flayed to expose the gastrocnemius-plantaris-sole muscle (GPS muscle). The Achilles tendon was bound and cut off, connected to an isometric tension meter ["CBE-1 10 kg" (trade name), manufactured by MINEBEA Co., Ltd.], and then held in place with a resting tension of about 100 g. […] Contraction force produced upon electric stimulation was recorded [amplifier: "AP-620G" (trade name), manufactured by Nihon Kohden Corporation, recorder: "WT-645G" (trade name), manufactured by Nihon Kohden Corporation]. […]
# [3] = test system: platelet aggregation (platelet-rich plasma); experiment: Inhibitory Effect on Canine Platelet Aggregation (ex vivo after oral administration, collagen + serotonin); assay type: in vivo, canine (male beagles); settings: Canis lupus familiaris, 0.1 mg/kg oral, collagen + serotonin 1 μM, read-out: Aggregation inhibition rate
# Protocol: Four male beagles which ranged in age from 17 to 19 months were used after fasted overnight. A suspension of (-)-(S)-5-[3-[4-(4-fluorophenyl)piperazin-1-yl]propyl]-8-hydroxy-1-methyl- 1,4,5,6,7,8-hexahydropyrrolo[3,2-c]azepin-4-one (test compound a) in a 0.5% aqueous solution of carboxymethylcellulose sodium salt was orally administered at 0.1 mg/kg. Before the administration of the test compound and after elapsed times of 1, 2, 4 and 6 hours from the administration, blood samples were collected from the foreleg veins. The blood was sampled using syringes containing a 1/10 volume of a 3.8% aqueous solution of sodium citrate ["cytorate for ESR Measurement" (trade name), product of The Green Cross Corp.].
# Each collected blood sample was centrifuged at room temperature and 190 g for 7 minutes, and the upper layer, platelet-rich plasma (PRP), was collected. The remaining blood was centrifuged at 1,500 g for 10 minutes, and the upper layer, platelet-poor plasma (PPP), was collected. Using collagen [final concentration: 0.03 to 5 μg/ml, "Collagenreagent Form" (trade name), product of Moriya Sangyo Co., Ltd.] and serotonin (final concentration: 1 μM, serotonin hydrochloride, product of Sigma Chemical Co.) as a platelet proaggrecant, the platelet aggregating ability was measured by the Born turbidimetry. Specifically, using PPP as a control, a solution of calcium chloride (product of NACALAI TESQUE, INC.) was added to PRP at 37° C. to give a final concentration of 1 mM. After 2 minutes, the proaggrecant was added. Variations in transmittance, which took place in the course of subsequent 10 minutes, were measured using a platelet aggregometer measuring instrument ["PAM-8C" (trade name), manufactured by MEBANCS, INC.], and its maximum value was recorded as a platelet aggregation rate (%). […] As an aggregation inhibition rate, the proportion of an aggregation rate after the administration of the test compound relative to an aggregation rate before the administration of the test compound was shown in percentage.
# Coronary artery = experiment: Relaxation of vasoconstriction induced by supernatant of aggregated platelets, coronary artery; parameters: species or system male Japanese white rabbit; settings: Oryctolagus cuniculus, aggregated platelet supernatant 1/100-fold dilution, read-out: EC50 (50% relaxation)
# Protocol: (§1) After a male Japanese white rabbit was anesthetized by intramuscular administration of ketamine (product of sankyo Company, Limited) at 50 mg/kg, a polyethylene-made catheter ["PE240" (trade name), manufactured by Becton Dickinson Co., Ltd.] was inserted into a carotid artery, and the blood was collected with a tube containing a 1/10 volume of a 3.8% aqueous solution of sodium citrate [NACALAI TESQUE, Inc.]. The blood so collected was centrifuged at 90 g (900 rpm) for 15 minutes ["05PR-22" (trade name), manufactured by Hitachi Koki Co., Ltd.] and platelet-rich plasma (PRP) was collected from the upper layer.
# (§2) After addition of an equiamount of buffer A (25 mM Tris-HCl, 130 mM NaCl, 1.5 mM EDTA, pH 7.4), to PRP, the mixture was centrifuged at 4° C. and 1,500 g (3,000 rpm) for 10 minutes. The thus-obtained platelet pellet was suspended again in buffer A, followed by centrifugation at 4° C. and 1,500 g (3,000 rpm) for 5 minutes. The resulting platelet pellet was suspended again in buffer B (25 mM Tris-HCl, 130 mM NaCl, 0.3 mM EDTA, pH 7.4), followed by centrifugation under the same conditions. […]
# (§3) After the vascular strip preparations had been left over for about 1 hour and their resting tensions had been confirmed to become stable, the tonicities of the vascular strip preparations were measured using the isometric transducers. […]
# Basilar artery = experiment: Relaxation of vasoconstriction induced by supernatant of aggregated platelets, basilar artery; parameters: species or system male Japanese white rabbit; settings: Oryctolagus cuniculus, aggregated platelet supernatant 1/100-fold dilution, read-out: EC50 (50% relaxation)
# Protocol: as §1, §2, §3
# Pulmonary artery = experiment: Relaxation of vasoconstriction induced by supernatant of aggregated platelets, pulmonary artery; parameters: species or system male Japanese white rabbit; settings: Oryctolagus cuniculus, aggregated platelet supernatant 1/100-fold dilution, read-out: EC50 (50% relaxation)
# Protocol: as §1, §2, §3
# Mesenteric artery = experiment: Relaxation of vasoconstriction induced by supernatant of aggregated platelets, mesenteric artery; parameters: species or system male Japanese white rabbit; settings: Oryctolagus cuniculus, aggregated platelet supernatant 1/100-fold dilution, read-out: EC50 (50% relaxation)
# Protocol: as §1, §2, §3
# Renal artery = experiment: Relaxation of vasoconstriction induced by supernatant of aggregated platelets, renal artery; parameters: species or system male Japanese white rabbit; settings: Oryctolagus cuniculus, aggregated platelet supernatant 1/100-fold dilution, read-out: EC50 (50% relaxation)
# Protocol: as §1, §2, §3
# Femoral artery = experiment: Relaxation of vasoconstriction induced by supernatant of aggregated platelets, femoral artery; parameters: species or system male Japanese white rabbit; settings: Oryctolagus cuniculus, aggregated platelet supernatant 1/100-fold dilution, read-out: EC50 (50% relaxation)
# Protocol: as §1, §2, §3
SMILES,Mortality rate [1] [%],Contraction force ([2]; 1 mg/kg oral) [g],Contraction force ([2]; 3 mg/kg oral) [g],Contraction force ([2]; 10 mg/kg oral) [g],inhibition at 0.1 mg/kg ([3]; 1 hr after administration) [%],inhibition at 0.1 mg/kg ([3]; 2 hr after administration) [%],inhibition at 0.1 mg/kg ([3]; 4 hr after administration) [%],inhibition at 0.1 mg/kg ([3]; 6 hr after administration) [%],EC50 (Coronary artery) [nM],EC50 (Basilar artery) [nM],EC50 (Pulmonary artery) [nM],EC50 (Mesenteric artery) [nM],EC50 (Renal artery) [nM],EC50 (Femoral artery) [nM]
"Cc1cn(C)c2c1C(=O)N(CCCN1CCN(c3ccc(F)cc3)CC1)CCC2O (stereo not shown) [Compound c, 5-[3-[4-(4-fluorophenyl)piperazin-1-yl]propyl]-8-hydroxy-1,3-dimethyl-1,4,5,6,7,8-hexahydropyrrolo[3,2-c]azepin-4-one]",30,,,,,,,,,,,,,
"Cn1ccc2c1C(O)CCN(CCCN1CCN(c3ccc(F)cc3)CC1)C2=O (racemic) [Compound b, (±)-5-[3-[4-(4-fluorophenyl)piperazin-1-yl]propyl]-8-hydroxy-1-methyl-1,4,5,6,7,8-hexahydropyrrolo[3,2-c]azepin-4-one]",25,,,,,,,,,,,,,
"Cn1ccc2c1[C@@H](O)CCN(CCCN1CCN(c3ccc(F)cc3)CC1)C2=O [Compound a, (-)-(S)-5-[3-[4-(4-fluorophenyl)piperazin-1-yl]propyl]-8-hydroxy-1-methyl-1,4,5,6,7,8-hexahydropyrrolo[3,2-c]azepin-4-one]",10,93 ± 17,116 ± 15,122 ± 10,99.7 ± 0.3,99.8 ± 0.2,99.3 ± 0.7,72.5 ± 16.1,254 ± 54,138 ± 55,14 ± 3,32 ± 22,246 ± 79,328 ± 112
